Measured values from patent publication US20140161722A1, “USE OF PYRIMIDINE DERIVATIVES FOR THE TREATMENT OF EGFR DEPENDENT DISEASES OR DISEASES THAT HAVE ACQUIRED RESISTANCE TO AGENTS THAT TARGET EGFR FAMILY MEMBERS” (priority 2008, published 2014).

Test system: EGFR inhibitor resistant NSCLC cell line NCI-H1975
Experiment: in vivo antitumor activity against s.c. NCI-H1975 tumors in athymic mice
Description: Female Harlan athymic mice (n=6), bearing s.c NCI-H1975 tumors are treated p.o. with the PI3K inhibitor Compound A at 50 mg/kg every day for the duration of the treatment. * p<0.05 (Dunnet's vs controls).
Non small cell lung carcinoma cell lines with EGFR mutant forms, but refractory to EGFR inhibition therapy, are valuable models to test the sensitivity of PI3K inhibitors like the compounds of formula I in such genetic background. The NCI-H1975 cell line is such a model as is highly tumorigenic in vivo. Moreover, it contains HER1 bearing the T790M gatekeeper mutation that renders the kinase resistant to catalytic inhibition by compounds such as gefitinib. The in vivo antitumor activity of PI3K inhibitors like the compounds of formula I is tested against this EGFR driven and EGFR tyrosine kinase inhibitor resistant tumor model (FIG. 1).

Nc1cc(C(F)(F)F)c(-c2cc(N3CCOCC3)nc(N3CCOCC3)n2)cn1 [Compound A, 5-(2,6-di-morpholin-4-yl-pyrimidin-4-yl)-4-trifluoromethyl-pyridin-2-ylamine]
antitumor activity (tumor growth) (female Harlan athymic mice, s.c. NCI-H1975 tumors (HER1 T790M), 50 mg/kg p.o. every day, p<0.05 Dunnet's vs controls (FIG. 1)): in vivo tumor growth inhibition | mean body weight, control vs treatment group (mice bearing s.c. NCI-H1975 tumors, 50 mg/kg p.o. every day (FIG. 2)): no statistically significant difference in body weight | tolerability (mouse, in vivo, 50 mg/kg): well tolerated
